According to publication PMC8608967, “KDS2010, a Newly Developed Reversible MAO-B Inhibitor, as an Effective Therapeutic Candidate for Parkinson’s Disease” (Neurotherapeutics, 2021):

What was measured:
[1] = Pharmacokinetic study in cynomolgus monkeys (N118029); format: in vivo, cynomolgus monkey (Macaca fascicularis); details: male, cynomolgus monkey, plasma, po
Procedure: All animals were at least 24 months old. […] Males and females were assigned to treatment groups in a stratified manner using the Pristima System based on most recent body weight. Clinical signs, including mortality, moribundity, general appearance, and behavioral changes, were recorded with date, time, and duration. Body weight was measured prior to the first KDS2010 dose. For oral administration, KDS2010 was dissolved in water. In total, 42 monkeys were administered KDS2010 and ultimately sacrificed for autopsy.
In the pharmacokinetic study (N118029), six male monkeys were assigned to 2 groups receiving either 10 or 30 mg/kg oral KDS2010. […] Blood samples were mixed gently, stored in a wet-ice cryo-rack, and centrifuged (approximately 13,200 rpm, 5 min, 4°C) to obtain plasma. The separated plasma was aliquoted into polypropylene tubes and stored frozen until analysis.

[2] = system: A53T mutant α-synuclein-overexpressing PD model rats; test: A53T mutant α-synuclein rat model: stepping test and cylinder test; format: in vivo; details: 10 mg/kg/day for 15 days
Procedure: Throughout the study, confounders were not controlled.
Motor dysfunction of A53T α-synuclein model rats was tested using the forelimb-use asymmetry test (cylinder test). Briefly, animals were placed in a transparent Plexiglas cylinder (20 cm in diameter and 30 cm in height) for 2 min to assess the frequency of ipsilesional and contralesional forelimb usage against the cylinder wall for supporting an upright body posture. The test score was calculated as the ratio of ipsilateral usage frequency to total ipsilateral plus contralateral usage frequency.

6-OHDA model rats = test: 6-OHDA rat model: stepping test, rotarod test, TH; details: 6-OHDA rats
Procedure: Group allocation and outcome assessment, but not the conduct of experiments and data analysis, were performed in a blinded manner. Throughout the study, confounders were not controlled. An acclimation period of 7 days was allowed for animals to stabilize in a new environment before model induction. […] Treatment drugs were dissolved in 100 μL of water and total dose (in mg) was calculated according to individual body weight (in kg). […] An experiment was halted if body weight decreased by 20% or more after MPTP or 6-hydroxydopamine (6-OHDA) treatment.
Finally, the 6-OHDA model was prepared as previously described [21]. Under general anesthesia, all rats received unilateral injections of 8 μg 6-OHDA (Sigma Aldrich) in 4 μL saline/0.1% ascorbic acid into the right medial forebrain bundle (AP − 2.2 mm and L + 1.5 mm relative to the bregma, V − 8.0 mm from the dura) [19], with the tooth bar set at + 4.5 mm.
Motor deficits of 6-OHDA and A53T mutant α-synuclein model rats were assessed as previously described with slight modifications [27]. Briefly, both hind limbs and one forelimb were firmly fixed in the two hands of the experimenter, and the rat was lowered over a treadmill moving at rate of 18 cm/s such that the body remained stationary while the free forelimb was allowed to spontaneously touch the moving treadmill track for 10 s. All experimental sessions were video recorded to count the number of adjusting steps taken in the backward direction. The number of adjusting steps was averaged across four trials in each session.
In addition, impaired motor coordination of 6-OHDA model rats was examined using the rotarod test as previously described with slight modifications [28]. […] Before the first rotarod test, all rats were pre-trained until riding time reached 60 s at 10 rpm (B.S Technolab, Seoul, Korea). Each session consisted of two trials, and riding time was averaged to obtain pre-6-OHDA, 0d, 7d, and 15d results.

[3] = system: APP/PS1 transgenic mouse model of AD; design: method as in PMID 30906861; details: APP/PS1 mice; short-term (3 days) or long-term (30 days) treatment; cited from earlier work
[4] = target: T1, human recombinant MAO-A (hMAO-A) (Homo sapiens, UniProt P21397); details: ref Park, JH. et al. Science Advances. 5(3), eaav0136 (2019), read-out: Inhibition (IC50) MAO-A; cited from earlier work
T1 construct: purchased Sigma Aldrich
T1 sequence (P21397 1-527): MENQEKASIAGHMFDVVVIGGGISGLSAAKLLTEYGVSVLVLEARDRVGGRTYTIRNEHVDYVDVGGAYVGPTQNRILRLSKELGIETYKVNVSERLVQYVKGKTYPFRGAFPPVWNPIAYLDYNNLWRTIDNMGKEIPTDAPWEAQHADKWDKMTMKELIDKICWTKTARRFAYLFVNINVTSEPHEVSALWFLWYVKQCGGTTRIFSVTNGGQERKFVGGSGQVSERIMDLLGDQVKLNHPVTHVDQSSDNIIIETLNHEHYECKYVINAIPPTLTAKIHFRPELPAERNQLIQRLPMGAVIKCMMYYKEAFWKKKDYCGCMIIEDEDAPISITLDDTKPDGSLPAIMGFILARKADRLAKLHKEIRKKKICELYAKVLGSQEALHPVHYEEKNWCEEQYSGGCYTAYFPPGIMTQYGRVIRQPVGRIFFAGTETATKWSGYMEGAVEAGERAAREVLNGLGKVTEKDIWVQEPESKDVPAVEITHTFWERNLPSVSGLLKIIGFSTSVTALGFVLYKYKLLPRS

[5] = Toxicokinetics in 4-week repeated-dose study in cynomolgus monkeys (G218027); format: in vivo, cynomolgus monkey (Macaca fascicularis)
Procedure: In the repeated 4-week oral administration toxicity with 2-week recovery and toxicokinetic test (G218027), monkeys were assigned to 4 groups of 3 males and 3 females. Each group was orally administered KDS2010 at 0, 10, 20, or 40 mg/kg/day once a day for 4 weeks. Toxicity tests were conducted as described for study G217013. For toxicokinetic measurements, blood samples were collected pre-dose (time 0) and at 1, 2, 4, 6, 8, 10, and 24 h after oral administration on the first day (day 1) and the last day (week 4; day 28) of dosing.
A non-compartmental analysis module in Phoenix® WinNonlin® (version 6.4) (Certara Inc., CA, USA) was used to calculate pharmacokinetic (PK) parameters. Systemic exposure to KDS2010 was calculated by applying the linear trapezoidal rule to the area under the plasma concentration–time curve from time zero to the last quantifiable time point (AUClast), and the maximum observed peak plasma concentration (Cmax) and the time to reach Cmax (Tmax) were determined based on the observed data. The apparent terminal elimination half-life (t1/2) was calculated from the apparent terminal elimination rate constant using the formula t1/2 = 0.693/kel.

[6] = H2O2 scavenging capacity test (Amplex red/HRP); details: 10 min incubation with H2O2 at RT
Procedure: To determine the H2O2 scavenging capacity of the test compound, H2O2 concentration was measured using the modified Amplex red/horseradish peroxidase (HRP) detection method as described previously. Briefly, a H2O2 solution was incubated with the test compound for 10 min at room temperature (RT), and then the reaction solution containing 20 mM Amplex red and 200 U/mL HRP was added. The absorbance was measured at 570 nm using a microplate reader. The H2O2 scavenging capacities were compared to a blank negative control and to the known H2O2 scavenger epigallocatechin gallate (EGCG) as a positive control.

**Q.** For `C[C@H](NCc1ccc(-c2ccc(C(F)(F)F)cc2)cc1)C(N)=O` [Compound 18j], which AUC ([1]; 10 mg/kg) is on record?
**A.** 30600 ± 422 ng·h/mL

**Q.** What about the Cmax ([1]; 10 mg/kg) of the same compound?
**A.** 2230 ± 143 ng/mL

**Q.** And the AUC ([1]; 30 mg/kg)?
**A.** 80800 ± 5370 ng·h/mL

**Q.** And the Cmax ([1]; 30 mg/kg)?
**A.** 4850 ± 568 ng/mL

**Q.** What about the “cylinder test: asymmetric usage of forelimbs” value [2] of the same compound?
**A.** alleviated

**Q.** What about the “stepping test: impaired stepping behavior of the contralateral forepaw” value [2] of the same compound?
**A.** significantly alleviated

**Q.** What about the “stepping test: stepping behavior deficit of the contralateral forepaw” value (6-OHDA model rats; 10 mg/kg/day for 15 days starting 17 days post-6-OHDA) of the same compound?
**A.** partially but significantly improved

**Q.** What about the “rotarod test: reduction in riding time (latency to fall)” value (6-OHDA model rats; 15 days' treatment starting 17 days after 6-OHDA) of the same compound?
**A.** partially reversed

**Q.** And the “nigrostriatal TH loss” value (6-OHDA model rats; data not shown)?
**A.** not reversed

**Q.** What about the memory impairment [3] of the same compound?
**A.** effectively ameliorated

**Q.** What about the IC50 [4] of the same compound?
**A.** > 100 µM

**Q.** What about the Tmax ([5]; both sexes, cynomolgus monkey, plasma, po, cynomolgus monkeys, 10, 20 or 40 mg/kg/day p.o.) of the same compound?
**A.** 4.72 ± 1.93 h

**Q.** And the “dose-dependent increase of AUClast” value ([5]; cynomolgus monkeys, 10, 20, 40 mg/kg/day p.o.)?
**A.** slightly less than proportional

**Q.** And the H2O2 scavenging effect [6]?
**A.** did not show any H2O2 scavenging effect
